Experimental findings from PMC8688847, “Implications of Membrane Binding by the Fe-S Cluster-Containing N-Terminal Domain in the Drosophila Mitochondrial Replicative DNA Helicase” (Frontiers in Genetics, 2021) are described below.

In one test the target is T1, ΔN-helicase (P66) (Homo sapiens, UniProt Q96RR1).
T1 construct: gene TWNK; variant lacking the N-terminus, termed P66 in Ziebarth et al. 2007
T1 sequence (Q96RR1 85-684 limits assumed): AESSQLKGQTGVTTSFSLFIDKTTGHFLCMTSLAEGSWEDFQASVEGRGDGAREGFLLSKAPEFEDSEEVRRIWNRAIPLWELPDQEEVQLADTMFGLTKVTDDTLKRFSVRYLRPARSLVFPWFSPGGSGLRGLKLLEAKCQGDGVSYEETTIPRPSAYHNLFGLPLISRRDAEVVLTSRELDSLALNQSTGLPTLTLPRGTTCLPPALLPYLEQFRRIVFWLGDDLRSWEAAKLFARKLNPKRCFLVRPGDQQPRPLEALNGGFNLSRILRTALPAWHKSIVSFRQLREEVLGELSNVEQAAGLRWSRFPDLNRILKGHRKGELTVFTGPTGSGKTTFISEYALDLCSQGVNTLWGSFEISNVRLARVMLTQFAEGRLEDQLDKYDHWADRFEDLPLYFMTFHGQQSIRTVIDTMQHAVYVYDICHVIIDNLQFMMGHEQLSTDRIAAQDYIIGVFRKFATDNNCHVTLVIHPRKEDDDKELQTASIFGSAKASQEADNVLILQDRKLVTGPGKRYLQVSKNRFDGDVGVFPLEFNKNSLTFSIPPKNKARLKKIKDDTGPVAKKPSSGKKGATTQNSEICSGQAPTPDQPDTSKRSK
As to the kind of experiment: malachite green ATPase assay. The format is biochemical. The note with it: 8 mM Mg acetate, pH 7.5, room temperature.

For test [1], the target named is T2, FL Hs mtDNA helicase (TWINKLE) (Homo sapiens, UniProt Q96RR1).
T2 construct: gene TWNK; full-length, recombinant, Ni-NTA purified
T2 sequence (Q96RR1 32-684): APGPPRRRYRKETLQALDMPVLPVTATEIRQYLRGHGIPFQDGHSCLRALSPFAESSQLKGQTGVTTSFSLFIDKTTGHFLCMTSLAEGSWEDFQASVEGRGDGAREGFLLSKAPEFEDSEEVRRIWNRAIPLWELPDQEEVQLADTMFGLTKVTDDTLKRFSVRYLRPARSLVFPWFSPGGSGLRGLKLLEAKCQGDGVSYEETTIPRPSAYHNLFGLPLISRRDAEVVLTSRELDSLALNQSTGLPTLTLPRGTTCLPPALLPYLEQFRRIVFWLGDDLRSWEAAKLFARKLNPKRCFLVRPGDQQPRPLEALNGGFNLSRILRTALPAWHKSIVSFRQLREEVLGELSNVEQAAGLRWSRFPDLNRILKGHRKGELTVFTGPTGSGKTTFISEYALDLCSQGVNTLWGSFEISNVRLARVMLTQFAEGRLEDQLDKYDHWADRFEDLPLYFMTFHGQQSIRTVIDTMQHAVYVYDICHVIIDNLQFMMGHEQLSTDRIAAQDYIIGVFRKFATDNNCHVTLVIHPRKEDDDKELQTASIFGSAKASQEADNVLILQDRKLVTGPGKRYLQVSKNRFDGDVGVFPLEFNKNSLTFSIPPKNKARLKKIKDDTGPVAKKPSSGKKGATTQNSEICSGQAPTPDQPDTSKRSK
As to the kind of experiment: malachite green ATPase assay. Conditions: 8 mM Mg acetate, pH 7.5, room temperature. The format is biochemical.

In the case of `Nc1ncnc2c1ncn2[C@@H]1O[C@H](COP(=O)(O)OP(=O)(O)OP(=O)(O)O)[C@@H](O)[C@H]1O` [ATP], the “malachite green ATPase assay” value on ΔN-helicase (P66) is given as “the ATPase activity of ΔN-helicase, termed P66”; in test [1], “ATP hydrolysis of FL helicase was increased with added calf thymus DNA”.
